Measured values as given in patent US7723070B2, “Overexpression of aminoacyl-tRNA synthetases for efficient production of engineered proteins containing amino acid analogues” (California Institute of Technology, priority 2000, dated 2010).
“Also recorded” adds a separate entry of the source.

What was measured:
[1] = system: E. coli strain CAG18491/pQE15/pREP4; experiment: Translational activity: mDHFR synthesis in methionine-depleted cultures of conventional host; type: cell-based; conditions: for mDHFR produced relative to cultures supplemented with methionine: control yield = methionine; for Protein Yield: mDHFR from 1-liter cultures supplemented with the analogue; for translational activity: capacity to support mDHFR synthesis in absence of methionine (SDS-PAGE): methionine-depleted minimal medium, IPTG induction
Protocol: Buffers and media were prepared according to standard protocols (Sambrook, J.; Fritsch, E. F.; Maniatis, T. Molecular Cloning: A Laboratory Manual, 2nd Ed. Cold Spring Harbor Laboratory Press, Cold Spring Harbor, N.Y. 1989; Ausubel, F. M.; Brent, K.; Kingston, K. E.; Moore, D. D.; Scidman, J. G.; Smith, J. A.; Struhl, K. Current Protocols in Molecular Biology, John Wiley & Sons, NY 1995). The E. coli methionine auxotroph CAG18491 (λ^−, rph-1, metE3079.:Tn10) (obtained from the Yale E. coli Genetic Stock Center), was transformed with plasmids pREP4 and pQE15 (Qiagen, Valencia, Calif.), to obtain the expression host CAG18491/pQE15/pREP4.
M9AA medium (50 mL) supplemented with 1 mM MgSO4, 0.2 wt % glucose, 1 mg/L thiamine chloride and the antibiotics ampicillin (200 mg/L) and kanamycin (25 mg/L) was inoculated with 2 mL of an overnight culture of CAG18491/pQE15/pREP4. When the turbidity of the culture reached an optical density at 600 nm (OD600) of 0.8, a medium shift was performed. The cells were sedimented for 10 min at 3030 g at 4° C., the supernatant was removed, and the cell pellet was washed twice with 20 mL of M9 medium. Cells were resuspended in 50 mL of the M9AA medium described above, without methionine. […] (0.31 mM), respectively. A culture lacking methionine (or any analogue) served as the negative control. Protein expression was induced by addition of isopropyl-β-D-thiogalactopyranoside (IPTG) to a final concentration of 0.4 mM. Samples were taken every hour for 4 h, the OD600 was measured, and the samples were sedimented. After the supernatant was decanted, the cell pellets were resuspended, in 20 μL distilled H2O.
Protein expression was monitored by SDS polyacrylamide gel electrophoresis (12% acrylamide running gel, 12 mA, 14 h), using a normalized OD600 of 0.2 per sample.
The example presented is for medium supplemented with 3. M9AA medium (100 mL) supplemented with 1 mM MgSO4 0.2 wt % glucose, 1 mg/L thiamine chloride and the antibiotics ampicillin (200 mg/L) and kanamycin (25 mg/L) was inoculated with E. coli strain CAG18491/pQE15/pREP4 and grown overnight at 37° C. This culture was used to inoculate 900 mL M9AA medium supplemented as described. The cells were grown to an OD600 of 0.94 and the medium shift was performed as described for the small scale experiments, followed by addition of 40 mL of 1 mg/mL DL-homopropargylglycine (3). IPTG (0.4 mM) was added, and samples were taken at 1 hour intervals. OD600 was measured, the samples were sedimented and decanted, and the cell pellets were resuspended in 20 μL distilled H2O. Protein expression was monitored by SDS polyacrylamide gel electrophoresis (12% acrylamide running gel, 12 mA, 15 h).
Approximately 4.5 h after induction, cells were sedimented (9,800 g, 10 min, 4° C.) and the supernatant was removed. The pellet was placed in the freezer overnight. The cells were thawed for 30 min at 37° C., 30 mL of buffer (6 M guanidine-HCl, 0.1 M NaH2PO4, 0.01 M Tris, pH 8) was added and the mixture was shaken at room temperature for 1 h. […] The supernatant was loaded on 10 mL of resin which was then washed with 50 mL of guanidine buffer followed by 25 mL of urea buffer (8 M urea, 0.1 M NaH2PO4 and 0.01 M Tris, pH 8). Similar urea buffers were used for three successive 25 mL washes at pH values of 6.3, 5.9 and 4.5, respectively. […] These washes were combined and dialyzed (Spectra/Por membrane 1, MWCO=6-8 kDa) against running distilled water for 4 days, followed by batchwise dialysis against doubly distilled water for one day. […] Amino acid analyses, electrospray mass spectrometry and N-terminal protein sequencing was performed on the mDHFR isolated.

[2] = system: B834(DE3) or CAG18491 hosts with pQE15/pREP4 or pQE15-MRS/pREP4; experiment: Translational activity: mDHFR synthesis, statements covering several bacterial hosts (with pQE15 or pQE15-MRS); type: cell-based, E. coli; conditions: for target protein mDHFR in SDS-PAGE: amino acids at 60 mg/liter, both bacterial hosts; for translational activity / incorporation in hosts with increased MetRS activity: hosts overproducing MetRS
Protocol: Methionine analogues were synthesized via alkylation of diethylacetamidomalonate, as previously described (As described in Example I, infra; J. C. M. van Hest, D. A. Tirrell, FEBS Lett. 1998, 428, 68-70). Cultures of B834(DE3)/pQE15-MRS/pREP4 or B834(DE3)/pQE15/pREP4 or CAG18491/pQE15-MRS/pREP4 or CAG18491/pQE15/pREP4 in M9AA media were grown to an optical density of 0.90, and the cells were sedimented by centrifugation. The M9AA medium was prepared by supplementing sterile M9 medium with […] of each of the amino acids, 1 mM MgSO4, 0.2 wt % glucose, 1 mg/ml thiamine chloride, and […] calcium chloride. The antibiotics ampicillin and kanamycin were added at concentrations of 200 mg/l and 35 mg/l, respectively.
Cells were washed three times with M9 salts and resuspended to an optical density of 0.90 in M9 test media containing 19 amino acids plus 1) neither methionine nor analogue (negative control); 2) methionine (60 mg/liter, positive control); or 3) an analogue of interest (60 mg/liter). To test the effect of increasing the level of supplementation of the analogues, a set of experiments was also conducted in which the medium was supplemented with 500 mg/liter of methionine or the amino acid analogue. Expression of mDHFR was induced by addition of 0.4 mM isopropyl β-D-thiogalactopyranoside (IPTG), and protein synthesis was monitored after 4.5 hours.

Compound: C=CCCC(N)C(=O)O (racemic) [Analogue 2, DL-2-amino-5-hexenoic acid]
- mDHFR produced relative to cultures supplemented with methionine [1]: 28%
- Protein Yield [1]: 10 mg/L
- translational activity: capacity to support mDHFR synthesis in absence of methionine (SDS-PAGE) [1]: exhibit translational activity sufficient to allow protein synthesis; also recorded: serve effectively as methionine surrogates; also recorded: can be detected
- target protein mDHFR in SDS-PAGE [2]: detected

Compound: CCC[C@H](N)C(=O)O [Analogue 8, L-norvaline]
- translational activity: capacity to support mDHFR synthesis in absence of methionine (SDS-PAGE) [1]: neither norvaline (8) nor 7 showed translational activity
- target protein mDHFR in SDS-PAGE [2]: not observed
- translational activity / incorporation in hosts with increased MetRS activity [2]: permits incorporation

Compound: CCCCCC(N)C(=O)O (racemic) [Analogue 7, DL-2-aminoheptanoic acid]
- translational activity: capacity to support mDHFR synthesis in absence of methionine (SDS-PAGE) [1]: neither norvaline (8) nor 7 showed translational activity
- target protein mDHFR in SDS-PAGE [2]: not observed
- translational activity / incorporation in hosts with increased MetRS activity [2]: permits incorporation

Compound: C/C=C\CC(N)C(=O)O (racemic) [Analogue 4, cis-2-amino-4-hexenoic acid]
- translational activity: capacity to support mDHFR synthesis in absence of methionine (SDS-PAGE) [1]: prevented incorporation; also recorded: neither 4 nor 5 were indicated to be translationally active
- target protein mDHFR in SDS-PAGE [2]: not observed
- translational activity / incorporation in hosts with increased MetRS activity [2]: permits incorporation

Compound: CCCC[C@H](N)C(=O)O [Analogue 9, L-norleucine]
- mDHFR produced relative to cultures supplemented with methionine [1]: 57%
- Protein Yield [1]: 20 mg/L
- translational activity: capacity to support mDHFR synthesis in absence of methionine (SDS-PAGE) [1]: confirmed; also recorded: does support protein synthesis; also recorded: can be detected
- target protein mDHFR in SDS-PAGE [2]: detected

Compound: C/C=C/CC(N)C(=O)O (racemic) [Analogue 5, trans-2-amino-4-hexenoic acid]
- Protein Yield [1]: 0 mg/L
- translational activity: capacity to support mDHFR synthesis in absence of methionine (SDS-PAGE) [1]: neither 5 or 11 support measurable protein synthesis; also recorded: prevented incorporation; also recorded: neither 4 nor 5 were indicated to be translationally active; also recorded: did not support measurable levels of protein synthesis
- translational activity / incorporation in hosts with increased MetRS activity [2]: permits incorporation

Compound: 2-butynylglycine [Analogue 11]
- Protein Yield [1]: 0 mg/L
- translational activity: capacity to support mDHFR synthesis in absence of methionine (SDS-PAGE) [1]: neither 5 or 11 support measurable protein synthesis; also recorded: not detected; also recorded: did not support measurable levels of protein synthesis
- translational activity / incorporation in hosts with increased MetRS activity [2]: permits incorporation

Compound: C=CCC(N)C(=O)O (stereo not drawn) [Analogue 12, allylglycine]
- target protein mDHFR in SDS-PAGE [2]: not observed
- translational activity / incorporation in hosts with increased MetRS activity [2]: permits incorporation

Compound: C#CCCC(N)C(=O)O (racemic) [Analogue 3, DL-homopropargylglycine]
- mDHFR produced relative to cultures supplemented with methionine [1]: equivalent
- substitution/replacement of methionine by analogue (1H NMR, amino acid analysis, N-terminal sequencing together) ([1]; mDHFR): near-quantitative replacement of methionine
- Protein Yield [1]: 35 mg/L
- translational activity: capacity to support mDHFR synthesis in absence of methionine (SDS-PAGE) [1]: exhibit translational activity sufficient to allow protein synthesis; also recorded: serve effectively as methionine surrogates; also recorded: can be detected
- target protein mDHFR in SDS-PAGE [2]: detected

Compound: CSCC[C@H](N)C(=O)O [Analogue 1, L-methionine, reference compound]
- Protein Yield [1]: 35 mg/L
- translational activity: capacity to support mDHFR synthesis in absence of methionine (SDS-PAGE) [1]: can be detected
- target protein mDHFR in SDS-PAGE [2]: detected
